These results are taken from patent US6436942B1, “Enantiomers of 1[(4-chloro-phenyl) phenylmethyl]-4-[(4-methylphenyl) sulfony]piperazine” (UCB, S.A., priority 1993, dated 2002).

For orientation: Ki means a measure of affinity in units of concentration, obtained from inhibition or displacement. A lower Ki goes with tighter binding. As usually defined, the pA2 is a measure of antagonist potency on a negative log scale. Low readings indicate a weaker antagonist, high ones a more potent antagonist. Usually inhibition stands for the percentage by which the read-out fell short of the control.

Structures can show the parent of a compound that is named as a salt. Where two headings read alike, the source gives them in different places.

The subject of series [1] is mice. The series is described as follows: Toxicity: lethal dose in mice after intraperitoneal injection. The settings on record: dose causing death in 2 out of 3 mice. Type of series: in vivo.
The target of series [2] is T1, rat cortex histamine H1 receptor (Rattus norvegicus, UniProt P31390).
T1 construct: the samples containing 0.5 mg of cortex membrane protein; from tissue; host or cells: cerebral cortex membranes of male Sprague-Dawley rats
The series is described as follows: Affinity towards the histamine H1 receptor ([3H]mepyramine competitive binding). The settings on record: cologarithm of Ki, mean ± deviation (n=2); [3H]mepyramine 4.5×10^−9 mole/l, rat cortex membranes. The procedure:
Cerebral cortexes from male Sprague-Dawley rats are homogenized in 2 ml per cortex of a 20 mM Tris-HCl buffer (pH 7.4) containing 250 mM sucrose. The homogenates are centrifuged at 30,000 g for 30 minutes at 4° C. and the centrifugation pellets are resuspended in the same fresh buffer and preserved in liquid nitrogen. […] The bound [^3H]mepyramine is separated from the free radioligand by rapid filtration of the sample through a Whatman GF/C filter, previously impregnated for at least 2 hours with a 0.1% solution of polyethyleneimine, in order to reduce the possibility of non-specific binding of the radioligand with other proteins. […] The radioactivity thereof is then measured using a β particle Tri-carb 1090 scintillation counter (Camberra-Packard, Belgium). Non-specific binding has been estimated in the presence of a 10 μM aqueous solution of cetirizine and represents 30% of the total binding. […] DE LEAN et al., Mol. Pharmacol., 21 (1982), 5-16) and their inhibition constants (Ki) are calculated by means of the CHENG and PRUSOFF equation (Y. C. CHENG and W. H. PRUSOFF, Biochem. Pharmacol., 22 (1973), 3099-3108). Table III below gives the values of pKi (cologarithm of Ki) calculated from Ki (mean value±deviation with respect to the mean (n=2)), for the compounds tested.

The test system of series [3] is isolated guinea pig trachea. The series is described as follows: Peripheral antihistaminic properties: inhibition of histamine-induced contraction of isolated guinea pig trachea. The settings on record: mean ± standard deviation, histamine-contracted guinea pig trachea; for pA2: competitive inhibition; for pD2′: non-competitive inhibition. On the procedure:
Tracheas of Dunkin-Hartley guinea pigs of both sexes (weight: 250-500 g) are excised and cut into four fragments of three segments of cartilage each. These fragments are immersed in a Krebs-Heinseleit solution at 37° C. containing 10^−7 mole/l of atropine and 10^−5 mole/l of indomethacin and are stretched with a weight of 1 g. The solution is aerated with a current of oxygen containing 5% carbon dioxide. Each change in tension, is recorded with an isometric force indicator K 30 (from Hugo Sachs Elektronik) coupled to an amplifier and a Sanborn 7700 recorder (from Hewlett Packard). The preparation (i.e. trachea fragment) so obtained is allowed to stabilize for one hour during which the base line for the tension is readjusted if necessary.
After washing and stabilization, a cumulative curve showing the effects of histamine, as a function of its concentration (10^−6, 10^−5 and 10^−4 mole/l) is plotted as a control.
For the same preparation, four further cumulative curves showing the effects of histamine as a function of its concentration are then recorded at four increasing concentrations of each compound to be tested.
The compounds to be tested are incorporated in the medium five minutes before the histamine. Between each measurement, the preparations are washed at least four times with an interval of five minutes between each washing. Each compound is tested on at least 6 trachea fragments. When the last curve is plotted, additional concentrations of 3.2×10^−4 and 10^−3 mole/l of histamine are added in order to determine whether the antagonism is competitive or not.

Series [4] deals with cutaneous reaction induced by histamine. The series is described as follows: Inhibition of the cutaneous reaction induced by histamine in dogs. Format: in vivo, dog. The settings on record: for Area of wheals: nine Beagle dogs, mean ± SD; for Wheal area as percent of reference: with respect to reference area (100%); for inhibition at 0.15 mg/kg: Canis lupus familiaris. The procedure: The dog is considered, among the animal species, to be the species having a sensitivity to histamine relatively close to that of man.
In this test, nine Beagle dogs are used, having an average weight of 12.6 kg and of about two years of age and of which the abdomens have been locally shaved. 50 μl of a 0.9% aqueous solution of sodium chloride, containing 10 μg/ml of histamine, is injected intradermally into the shaved area. Simultaneously, a solution of Evans blue dye (60 mg/ml in a 0.9% aqueous solution of sodium chloride), is administered by intravenous injection to each dog at a dose of 0.1 ml/kg. An allergic reaction develops at the intradermal injection site and there appears a wheal, the area of which is measured exactly 30 minutes after the two injections. This area is taken as the reference. area (100%)
The compound to be tested is then administered orally, at a dose of 0.15 mg/kg (0.32×10^−6 mole/kg). 0.5, 1.5, 3, 6, 9, 12, 24 and 32 hours after administration of the compound to be tested, new wheals are induced at different abdominal locations by injecting histamine. Each time, the area of the induced wheal is measured 30 minutes after the injection of histamine.
The antihistaminic activity of a compound on the cutaneous allergic reaction is determined by measuring the reduction in the area of the induced wheals, following administration of the compound, with respect to the area of the reference wheal, and then expressed in percent.

Setting [5] is: 0.5 hours after 0.15 mg/kg oral.
[6] abbreviates: 1.5 hours after 0.15 mg/kg oral.

T1 sequence (P31390 whole entry): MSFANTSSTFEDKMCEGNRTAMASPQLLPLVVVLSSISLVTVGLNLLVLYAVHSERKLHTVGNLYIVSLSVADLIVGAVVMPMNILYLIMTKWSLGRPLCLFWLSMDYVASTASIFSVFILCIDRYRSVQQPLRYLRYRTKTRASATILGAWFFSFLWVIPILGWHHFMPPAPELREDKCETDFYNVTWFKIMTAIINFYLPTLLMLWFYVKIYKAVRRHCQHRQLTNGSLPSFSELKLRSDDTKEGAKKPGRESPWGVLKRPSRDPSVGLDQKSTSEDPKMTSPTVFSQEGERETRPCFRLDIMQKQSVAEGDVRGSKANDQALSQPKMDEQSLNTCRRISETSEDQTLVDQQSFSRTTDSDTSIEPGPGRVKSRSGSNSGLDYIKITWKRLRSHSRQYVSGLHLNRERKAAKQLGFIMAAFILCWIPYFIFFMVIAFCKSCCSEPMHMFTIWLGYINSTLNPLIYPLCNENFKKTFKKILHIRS

In series [1], `Cc1cccc(CN2CCN(C(c3ccccc3)c3ccc(Cl)cc3)CC2)c1` (single isomer, unassigned) [C, levorotatory dihydrochloride of 1-[(4-chlorophenyl)phenylmethyl]-4-[(3-methylphenyl)methyl]piperazine] showed a Lethal dose of over 0.001 mol/kg. Besides, the inhibition constant Ki in series [2] is 631 nM.
In series [1], `Cc1cccc(CN2CCN(C(c3ccccc3)c3ccc(Cl)cc3)CC2)c1` (single isomer, unassigned) [D, dextrorotatory dihydrochloride of 1-[(4-chlorophenyl)phenylmethyl]-4-[(3-methylphenyl)methyl]piperazine] returned a Lethal dose of over 0.001 mol/kg. The affinity in series [2] corresponds to a Ki of 63.1 nM.
The matching figures for `CC(C)(C)c1ccc(CN2CCN(C(c3ccccc3)c3ccc(Cl)cc3)CC2)cc1` (single isomer, unassigned) [E, levorotatory dihydrochloride of 1-[(4-tert-butylphenyl)methyl]-4-[(4-chlorophenyl)phenylmethyl]piperazine]: 0.001 mol/kg and 1260 nM.
For `CC(C)(C)c1ccc(CN2CCN(C(c3ccccc3)c3ccc(Cl)cc3)CC2)cc1` (single isomer, unassigned) [F, dextrorotatory dihydrochloride of 1-[(4-tert-butylphenyl)methyl]-4-[(4-chlorophenyl)phenylmethyl]piperazine] the same measures were over 0.001 mol/kg and 631 nM.
`OCCOCCN1CCN(C(c2ccccc2)c2ccc(Cl)cc2)CC1` (single isomer, unassigned) [G, levorotatory dihydrochloride of 2-[2-[4-[(4-chlorophenyl)phenylmethyl]-1-piperazinyl]ethoxy]ethanol] displayed a Lethal dose in series [1] of 0.0006 mol/kg. The same compound gave an inhibition constant Ki in series [2] of 25.1 nM. In addition, the pA2 in series [3] is given as 6.5 ± 0.3.
`OCCOCCN1CCN(C(c2ccccc2)c2ccc(Cl)cc2)CC1` (single isomer, unassigned) [H, dextrorotatory dihydrochloride of 2-[2-[4-[(4-chlorophenyl)phenylmethyl]-1-piperazinyl]ethoxy]ethanol]: the Lethal dose in series [1] was found to be 0.0006 mol/kg. The Ki in series [2] is 2 nM. Also, in series [3], the “pD2′” value is listed as 6.7 ± 0.1.
`OCCOCCOCCN1CCN(C(c2ccccc2)c2ccc(Cl)cc2)CC1` (single isomer, unassigned) [I, levorotatory dihydrochloride of 2-[2-[2-[4-[(4-chlorophenyl)phenylmethyl]-1-piperazinyl]ethoxy]ethoxy]ethanol]: in series [1], the Lethal dose is 0.0001 mol/kg. The compound further had a Ki in series [2] of 79.4 nM. The compound further registered a pA2 in series [3] of 6.5 ± 0.4.
With `OCCOCCOCCN1CCN(C(c2ccccc2)c2ccc(Cl)cc2)CC1` (single isomer, unassigned) [J, dextrorotatory dihydrochloride of 2-[2-[2-[4-[(4-chlorophenyl)phenylmethyl]-1-piperazinyl]ethoxy]ethoxy]ethanol], in series [1], the Lethal dose was 0.0001 mol/kg. The same compound had a Ki in series [2] of 2.51 nM. Further, in series [3], the “pD2′” value is reported as 6.0 ± 0.3.
In the case of `COC(=O)COCCN1CCN(C(c2ccccc2)c2ccc(Cl)cc2)CC1` (single isomer, unassigned) [M, levorotatory dimaleate of methyl 2-[2-[4-[(4-chlorophenyl)phenylmethyl]-1-piperazinyl]ethoxy]acetate], the affinity in series [2] corresponds to a Ki of 3.16 nM.
Same read-out and setting: the value for `COC(=O)COCCN1CCN(C(c2ccccc2)c2ccc(Cl)cc2)CC1` (single isomer, unassigned) [N, dextrorotatory dimaleate of methyl 2-[2-[4-[(4-chlorophenyl)phenylmethyl]-1-piperazinyl]ethoxy]acetate] was 79.4 nM.
As for `O=C(O)COCCN1CCN(C(c2ccccc2)c2ccc(Cl)cc2)CC1` (single isomer, unassigned) [O, levorotatory dihydrochloride of 2-[2-[4-[(4-chlorophenyl)phenylmethyl]-1-piperazinyl]ethoxy]acetic acid], the inhibition constant (Ki) in series [2] was 39.8 nM. This compound also came in with a pA2 in series [3] of 6.6 ± 0.3.
As for `O=C(O)COCCN1CCN(C(c2ccccc2)c2ccc(Cl)cc2)CC1` (single isomer, unassigned) [P, dextrorotatory dihydrochloride of 2-[2-[4-[(4-chlorophenyl)phenylmethyl]-1-piperazinyl]ethoxy]acetic acid], the affinity in series [2], expressed as Ki, was 6.31 nM. Also, the “pD2′” value in series [3] is on record as 6.3 ± 0.2. Moreover, the Area of wheals in series [4] (setting [5]) turned out to be 65 ± 10 mm^2; in series [4] (setting [6]), 44 ± 12 mm^2; in series [4] (3 hours after 0.15 mg/kg oral), 33 ± 10 mm^2; in series [4] (6 hours after 0.15 mg/kg oral), 41 ± 13 mm^2; in series [4] (9 hours after 0.15 mg/kg oral) it was 41 ± 10 mm^2; in series [4] (12 hours after 0.15 mg/kg oral), 41 ± 10 mm^2. The results for the Area of wheals in series [4] (24 hours after 0.15 mg/kg oral) and in series [4] (32 hours after 0.15 mg/kg oral) were 45 ± 5 mm^2 and 51 ± 5 mm^2, respectively. Besides, the “Wheal area as percent of reference” value in series [4] (setting [5]) was found to be 85%; in series [4] (setting [6]), 58%; in series [4] (3 hours after 0.15 mg/kg oral), 43%; in series [4] (6 hours after 0.15 mg/kg oral), 54%; in series [4] (9 hours after 0.15 mg/kg oral), 54%; in series [4] (12 hours after 0.15 mg/kg oral), 54%. Further, the “Wheal area as percent of reference” value in series [4] (24 hours after 0.15 mg/kg oral) came to 59%; in series [4] (32 hours after 0.15 mg/kg oral) it was 67%. Besides, the “reduction in the area of the wheals” value in series [4] (30 minutes after administration, 0.15 mg/kg oral, dogs) came to 15%. Moreover, the inhibition at 0.15 mg/kg stood at 57% in series [4] (3 h, after three hours, 0.15 mg/kg oral, dogs, read-out: Maximum inhibition (of wheal area)) and 33% in series [4] (after 32 hours, 0.15 mg/kg oral, dogs, read-out: inhibition (of wheal area), statistically significant).
In series [3], `Clc1ccc(C(c2ccccc2)N2CCNCC2)cc1` (single isomer, unassigned; (+)) [B, (+)-1-[(4-chlorophenyl)phenylmethyl]piperazine] yielded a pA2 of 5.0 ± 0.1.
Same read-out and setting: for `Clc1ccc(C(c2ccccc2)N2CCNCC2)cc1` (single isomer, unassigned; (-)) [A, (−)-1-[(4-chlorophenyl)phenylmethyl]piperazine] the value was 5.7 ± 0.4.
